The values below are quoted from earlier work in patent US10610707B2, “Oral care product for sensitive enamel care” (Colgate-Palmolive Company, priority 2010, dated 2020).

The conditions of this data set: pH below which the compound dissolves, consuming acid.

Regarding `O=C([O-])[O-].[Ca+2]` [calcium carbonate], the pH entry was “approximately 8.75”.
Turning to `[O]=[Zn]` [ZnO, Zinc oxide], the pH entry is given as “approximately 6.95”.
